# In patent US11447445B2, “Diabetes and metabolic syndrome treatment with a novel dual modulator of soluble epoxide hydrolase and peroxisome proliferator-activated receptors” (priority 2015, dated 2022):
# Read-outs that look alike come from different tables or passages of the source.
# What was measured:
# [1] = biological target: T1, PPARδ (Homo sapiens, UniProt Q03181); experiment: PPAR transactivation assay in COS-7 cells (Gal4-hPPAR-LBD, luciferase); assay type: cell-based
# T1 construct: expressed in transfected cells; host or cells: COS-7
# T1 sequence (Q03181 211-439): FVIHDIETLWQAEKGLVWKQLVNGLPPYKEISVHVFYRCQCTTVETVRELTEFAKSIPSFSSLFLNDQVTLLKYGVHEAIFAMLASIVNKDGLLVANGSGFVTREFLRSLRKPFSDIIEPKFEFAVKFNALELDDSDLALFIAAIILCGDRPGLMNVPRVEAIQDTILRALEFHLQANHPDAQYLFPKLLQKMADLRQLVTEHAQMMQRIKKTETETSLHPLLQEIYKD
# Procedure: (§1) COS-7 cells (PPAR) were grown in DMEM high glucose, supplemented with 10% fetal calf serum (FCS), 1% sodium pyruvate (SP) and 1% penicillin/streptomycin (PS) at 37° C. and 5% CO2. Used plasmids for PPAR transactivation assay are shown under supporting informations.
# (§2) The day before transfection, COS-7 cells were seeded in 96-well plates with a density of 30,000 cells per well. Transient transfection was carried out using Lipofectamine LTX reagent (Invitrogen, Carlsbad, Calif., USA) according to the manufacturer's protocol with pFR-Luc (Stratagene), pRL-SV40 (Promega) and the Ga14-fusion receptor plasmids (pFA-CMV-hPPAR-LBD) of the respective PPAR subtype. 5 h after transfection, medium was changed to DMEM without phenol red and 10% FCS, supplemented with 1% SP, 1% PS and 1% L-glutamine, now additionally containing 0.1% DMSO and the respective test compound or 0.1% DMSO alone as untreated control. Each concentration was tested in triplicate wells and each experiment was repeated independently at least three times. Following overnight incubation with the test compounds, cells were assayed for luciferase activity using Dual-Glo™ Luciferase Assay System (Promega) according to the manufacturer's protocol. Luminescence was measured with an Infinite m200 luminometer (Tecan Deutschland GmbH). Each concentration of the compounds was tested in triplicate wells. Normalization for transfection efficacy and cell growth was done by division of the firefly luciferase data by renilla luciferase data resulting in relative light units. Activation factors were obtained by dividing by DMSO control. […] All compounds were evaluated by comparison of the achieved maximum effect to that of the reference compound (pioglitazone for PPARγ, GW7647 for PPARa, and L165041 for PPARS each with 1 μM). Data are expressed as mean±SE; n≥3.
# (§3) The Gal4-fusion receptor plasmids pFA-CMV-PPARa-LBD, pFA-CMV-PPARS-LBD and pFA-CMV-PPARγ-LBD containing the hinge region and ligand binding domain (LBD) for each of the PPAR subtypes, respectively, were constructed by integrating cDNA fragments obtained from PCR amplification of human monocytes into the SmaI/XbaI cleavage site of the pFA-CMV vector (Stratagene, La Jolla, Calif., USA) and have already been published. […] Frame and sequence of the fusion receptors were verified by sequencing. pFR-Luc (Stratagene) was used as reporter plasmid and pRL-SV40 (Promega) for normalization of transfection efficacy and cell growth.
# [2] = biological target: T2, PPARα (Homo sapiens, UniProt Q07869); assay type: cell-based; settings: for PPARα activation @10 μM: at 10 μM, compared to GW7647 1 μM
# T2 construct: expressed in transfected cells; host or cells: COS-7
# T2 sequence (Q07869 239-466): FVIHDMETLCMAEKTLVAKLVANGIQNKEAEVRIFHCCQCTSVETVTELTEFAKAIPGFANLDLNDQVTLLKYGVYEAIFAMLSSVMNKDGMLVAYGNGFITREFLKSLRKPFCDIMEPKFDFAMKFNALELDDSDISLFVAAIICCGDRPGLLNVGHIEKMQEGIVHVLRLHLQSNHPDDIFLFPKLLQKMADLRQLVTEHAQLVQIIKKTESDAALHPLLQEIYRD
# Procedure: as §1, §2, §3
# [3] = biological target: T3, recombinant human sEH (Homo sapiens, UniProt P34913); experiment: biochemical
# T3 sequence (P34913 1-555): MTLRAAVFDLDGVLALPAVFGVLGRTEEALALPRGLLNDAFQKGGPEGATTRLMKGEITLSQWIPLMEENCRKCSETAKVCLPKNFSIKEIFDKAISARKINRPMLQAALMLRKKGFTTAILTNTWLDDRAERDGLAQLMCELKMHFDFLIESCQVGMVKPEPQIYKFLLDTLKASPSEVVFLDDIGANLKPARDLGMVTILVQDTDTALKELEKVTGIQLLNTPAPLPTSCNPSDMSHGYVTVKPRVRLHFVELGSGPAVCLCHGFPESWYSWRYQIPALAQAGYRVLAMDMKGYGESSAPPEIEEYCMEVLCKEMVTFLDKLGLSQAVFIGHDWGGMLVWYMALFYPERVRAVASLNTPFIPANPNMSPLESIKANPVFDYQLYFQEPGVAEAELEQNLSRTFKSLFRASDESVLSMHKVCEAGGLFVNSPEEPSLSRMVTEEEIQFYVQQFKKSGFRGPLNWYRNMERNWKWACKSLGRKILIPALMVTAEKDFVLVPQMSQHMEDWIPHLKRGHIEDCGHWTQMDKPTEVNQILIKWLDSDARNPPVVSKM
# [4] = Water solubility approximation; assay type: physicochemical; settings: PBS with 0.01% Polysorbate 20, aqueous with cosolvent or surfactant or cyclodextrin, kinetic from dmso stock; PBS pH 7.4, 0.01% Polysorbate 20, 1% DMSO; precipitation at 650 nm; read-out: w.s. (water solubility)
# Procedure: PBS at pH 7.4 with 0.01% Polysorbate 20 (Tween) was combined with 1% of a DMSO solution of the inquired compound in a 96-well transparent flat bottom microtiter plate. Precipitation of the compound was measured at 650 nm with a Tecan Infinite 200 (Tecan Group Ltd, Mannedorf, Switzerland).
# [5] = at 10 μM, read-out: sEH inhibition @10 μM (converted)
smiles,measurement,setting,value
CCOC(=O)/C(=C/c1ccc(C(=O)NCc2ccccc2C(F)(F)F)cc1)CC [Compound 1a],EC50 PPARδ,[1]; i.a. = inactive,i.a.
same,EC50 PPARα,[2]; i.a. = inactive,i.a.
same,IC50,[3]; read-out: IC50 sEH (converted),0.063 ± 0.003 µM
"CC/C(=C\c1ccc(C(=O)NCc2ccccc2C(F)(F)F)cc1)C(=O)O [Compound 1d, (E)-4-[N-((2-Trifluoromethyl)benzyl)benzamide]-alpha-ethylcinnamic acid]",EC50 PPARδ,[1]; i.a. = inactive,i.a.
same,EC50 PPARα,[2]; i.a. = inactive,i.a.
same,IC50,[3]; read-out: IC50 sEH (converted),0.12 ± 0.01 µM
"CCC(Cc1ccc(C(=O)NCc2ccccc2)cc1)C(=O)O (stereo not shown) [Compound 2c, 2-Ethyl 3-[4-(N-benzylbenzamide)]propionic acid]",EC50 PPARδ,[1],n.t. i.a. i.a. n.t.
same,EC50 PPARα,[2],n.t. i.a. i.a. n.t.
same,inhibition at 10 µM,[3]; read-out: sEH inhibition @10 μM,4%
"CCC(Cc1ccc(C(=O)NCc2ccccc2C)cc1)C(=O)O (stereo not shown) [Compound 3c, 2-Ethyl 3-[4-(N-((2-methyl)benzyl)benzamide)]propionic acid]",EC50 PPARδ,[1]; i.a. = inactive,n.t. i.a. i.a. n.t.
same,EC50 PPARα,[2]; i.a. = inactive,i.a.
same,inhibition at 10 µM,[3]; [5],25%
"CCC(Cc1ccc(C(=O)NCc2ccccc2Cl)cc1)C(=O)O (stereo not shown) [Compound 4c, 2-Ethyl 3-[4-(N-((2-chloro)benzyl)benzamide)]propionic acid]",EC50 PPARδ,[1]; i.a. = inactive,n.t. i.a. i.a. n.t.
same,EC50 PPARα,[2]; i.a. = inactive,n.t. i.a. i.a. n.t.
same,inhibition at 10 µM,[3]; [5],20%
"CCC(Cc1ccc(C(=O)NCc2ccccc2Br)cc1)C(=O)O (stereo not shown) [Compound 5c, 2-Ethyl 3-[4-(N-((2-bromo)benzyl)benzamide)]propionic acid]",EC50 PPARδ,[1]; i.a. = inactive,n.t. i.a. i.a. n.t.
same,EC50 PPARα,[2]; i.a. = inactive,n.t. i.a. i.a. n.t.
same,inhibition at 10 µM,[3]; [5],34%
same,solubility,[4],500 µM
"CCOC(=O)/C(=C/c1ccc(C(=O)NCc2ccccc2OC(F)(F)F)cc1)CC [Compound 6a, Ethyl (E)-4-[N-((2-trifluoromethoxy)benzyl)benzamide]-alpha-ethylcinnamate]",IC50,[3]; read-out: IC50 sEH (converted),0.06 ± 0.013 µM
same,solubility,[4],10 µM
"CCOC(=O)C(CC)Cc1ccc(C(=O)NCc2ccccc2OC(F)(F)F)cc1 (stereo not shown) [Compound 6b, Ethyl 2-ethyl 3-[4-(N-((2-trifluoromethoxy)benzyl)benzamide)]propanoate]",EC50 PPARδ,[1]; i.a. = inactive,n.t. i.a. i.a. n.t.
same,EC50 PPARα,[2]; i.a. = inactive,n.t. i.a. i.a. n.t.
same,solubility,[4],100 µM
"CCC(Cc1ccc(C(=O)NCc2ccc(F)cc2)cc1)C(=O)O (stereo not shown) [Compound 7c, 2-Ethyl 3-[4-(N-((4-fluoro)benzyl)benzamide)]propionic acid]",EC50 PPARδ,[1]; i.a. = inactive,n.t. i.a. i.a. n.t.
same,EC50 PPARα,[2]; i.a. = inactive,n.t. i.a. i.a. n.t.
same,inhibition at 10 µM,[3]; [5],28%
"CC/C(=C\c1ccc(C(=O)NCc2ccc(C(F)(F)F)cc2)cc1)C(=O)O [Compound 8d, (E)-4-[N-((4-Trifluoromethyl)benzyl)benzamide]-alpha-ethylcinnamic acid]",IC50,[3]; read-out: IC50 sEH (converted),2.8 µM
same,solubility,[4],500 µM
"CCOC(=O)/C(=C/c1ccc(C(=O)NCc2ccc(OC)cc2)cc1)CC [Compound 10a, Ethyl (E)-4-[N-((4-methoxy)benzyl)benzamide]-alpha-ethylcinnamate]",IC50,[3],0.55 µM
same,solubility,[4],10 µM
"CCOC(=O)C(CC)Cc1ccc(C(=O)NCc2ccc(OC)cc2)cc1 (stereo not shown) [Compound 10b, Ethyl 2-ethyl 3-[4-(N-((4-methoxy)benzyl)benzamide)]propanoate]",EC50 PPARδ,[1]; i.a. = inactive,n.t. i.a. i.a. n.t.
same,EC50 PPARα,[2]; i.a. = inactive,n.t. i.a. i.a. n.t.
same,solubility,[4],10 µM
"CCOC(=O)/C(=C/c1ccc(C(=O)NCc2ccc(Cl)cc2)cc1)CC [Compound 11a, Ethyl (E)-4-[N-((4-chloro)benzyl)benzamide]-alpha-ethylcinnamate]",IC50,[3]; read-out: IC50 sEH (converted),3 ± 1.4 µM
same,solubility,[4],10 µM
"CCOC(=O)C(CC)Cc1ccc(C(=O)NCc2ccc(Cl)cc2)cc1 (stereo not shown) [Compound 11b, Ethyl 2-ethyl 3-[4-(N-((4-chloro)benzyl)benzamide)]propanoate]",EC50 PPARδ,[1]; i.a. = inactive,n.t. i.a. i.a. n.t.
same,EC50 PPARα,[2]; i.a. = inactive,n.t. i.a. i.a. n.t.
same,solubility,[4],10 µM
"CCC(Cc1ccc(C(=O)NCc2ccc(Cl)cc2)cc1)C(=O)O (stereo not shown) [Compound 11c, 2-Ethyl 3-[4-(N-((4-chloro)benzyl)benzamide)]propionic acid]",EC50 PPARδ,[1]; i.a. = inactive,n.t. i.a. i.a. n.t.
same,EC50 PPARα,[2]; i.a. = inactive,n.t. i.a. i.a. n.t.
same,solubility,[4],500 µM
"CC/C(=C\c1ccc(C(=O)NCc2ccc(Cl)cc2)cc1)C(=O)O [Compound 11d, (E)-4-[N-((4-Chloro)benzyl)benzamide]-alpha-ethylcinnamic acid]",IC50,[3]; read-out: IC50 sEH (converted),5 µM
same,solubility,[4],100 µM
"CCOC(=O)C(CC)Cc1ccc(C(=O)NCc2ccc(OC)cc2C(F)(F)F)cc1 (stereo not shown) [Compound 14b, Ethyl 2-ethyl 3-[4-(N-(4-methoxy(2-trifluoromethyl)benzyl)benzamide)]propanoate]",EC50 PPARδ,[1]; i.a. = inactive,n.t. i.a. i.a. n.t.
same,PPARα activation @10 μM,[2],22%
"CCOC(=O)C(CC)Cc1cccc(C(=O)NCc2ccccc2C(F)(F)F)c1 (stereo not shown) [Compound 15b, Ethyl 2-ethyl 3-[3-(N-((2-trifluoromethyl)benzyl)benzamide)]propanoate]",EC50 PPARδ,[1]; i.a. = inactive,i.a.
same,EC50 PPARα,[2]; i.a. = inactive,i.a.
same,IC50,[3]; read-out: IC50 sEH (converted),0.027 ± 0.002 µM
"CCC(Cc1cccc(C(=O)NCc2ccccc2C(F)(F)F)c1)C(=O)O (stereo not shown) [Compound 15c, 2-Ethyl 3-[3-(N-((2-trifluoromethyl)benzyl)benzamide)]propionic acid]",EC50 PPARδ,[1]; i.a. = inactive,i.a.
same,PPARα activation @10 μM,[2],@10 μM (34%)
same,IC50,[3]; read-out: IC50 sEH (converted),0.9 ± 0.08 µM
"CCOC(=O)/C(C)=C/c1ccc(C(=O)NCc2ccccc2C(F)(F)F)cc1 [Compound 17a, Ethyl (E)-4-[N-((2-trifluoromethyl)benzyl)benzamide]-alpha-methylcinnamate]",IC50,[3]; read-out: IC50 sEH (converted),0.1 ± 0.03 µM
same,solubility,[4],10 µM
"C/C(=C\c1ccc(C(=O)NCc2ccccc2C(F)(F)F)cc1)C(=O)O [Compound 17d, (E)-4-[N-((2-Trifluoromethyl)benzyl)benzamide]-alpha-methylcinnamic acid]",IC50,[3]; read-out: IC50 sEH (converted),4.9 ± 0.06 µM
same,solubility,[4],500 µM
"CCC/C(=C\c1ccc(C(=O)NCc2ccccc2C(F)(F)F)cc1)C(=O)OCC [Compound 18a, Ethyl (E)-4-[N-((2-trifluoromethyl)benzyl)benzamide]-alpha-propylcinnamate]",IC50,[3]; read-out: IC50 sEH (converted),0.16 ± 0.06 µM
same,solubility,[4],10 µM
"CCC/C(=C\c1ccc(C(=O)NCc2ccccc2C(F)(F)F)cc1)C(=O)O [Compound 18d, (E)-4-[N-((2-Trifluoromethyl)benzyl)benzamide]-alpha-propylcinnamic acid]",IC50,[3]; read-out: IC50 sEH (converted),0.7 ± 0.06 µM
same,solubility,[4],5 µM
"CCOC(=O)/C(=C/c1ccc(C(=O)NCc2ccccc2C(F)(F)F)cc1)c1ccccc1 [Compound 19a, Ethyl (E)-4-[N-((2-trifluoromethyl)benzyl)benzamide]-alpha-phenylcinnamate]",IC50,[3]; read-out: IC50 sEH (converted),0.16 ± 0.03 µM
same,solubility,[4],1 µM
"O=C(O)/C(=C/c1ccc(C(=O)NCc2ccccc2C(F)(F)F)cc1)c1ccccc1 [Compound 19d, (E)-4-[N-((2-Trifluoromethyl)benzyl)benzamide]-alpha-phenylcinnamic acid]",IC50,[3]; read-out: IC50 sEH (converted),0.8 ± 0.01 µM
same,solubility,[4],50 µM
"O=C(NCc1ccccc1C(F)(F)F)c1ccc(C2CC2C(=O)O)cc1 (stereo not shown) [Compound 22, 2-[4-(N-((2-trifluoromethyl)benzyl)benzamide)]cyclopropan carboxylic acid]",EC50 PPARδ,[1]; i.a. = inactive,i.a.
same,EC50 PPARα,[2]; i.a. = inactive,i.a.
same,IC50,[3]; read-out: IC50 sEH (converted),5.5 ± 0.2 µM
